Biological target: T1, Human CARM1 (PRMT4) (Homo sapiens, UniProt Q86X55)
T1 construct: Flag-CARM1-His; made in house; host or cells: HEK 293F cells (BacMam virus, pFastBacMam)
T1 sequence (Q86X55 1-585 isoform Q86X55-1): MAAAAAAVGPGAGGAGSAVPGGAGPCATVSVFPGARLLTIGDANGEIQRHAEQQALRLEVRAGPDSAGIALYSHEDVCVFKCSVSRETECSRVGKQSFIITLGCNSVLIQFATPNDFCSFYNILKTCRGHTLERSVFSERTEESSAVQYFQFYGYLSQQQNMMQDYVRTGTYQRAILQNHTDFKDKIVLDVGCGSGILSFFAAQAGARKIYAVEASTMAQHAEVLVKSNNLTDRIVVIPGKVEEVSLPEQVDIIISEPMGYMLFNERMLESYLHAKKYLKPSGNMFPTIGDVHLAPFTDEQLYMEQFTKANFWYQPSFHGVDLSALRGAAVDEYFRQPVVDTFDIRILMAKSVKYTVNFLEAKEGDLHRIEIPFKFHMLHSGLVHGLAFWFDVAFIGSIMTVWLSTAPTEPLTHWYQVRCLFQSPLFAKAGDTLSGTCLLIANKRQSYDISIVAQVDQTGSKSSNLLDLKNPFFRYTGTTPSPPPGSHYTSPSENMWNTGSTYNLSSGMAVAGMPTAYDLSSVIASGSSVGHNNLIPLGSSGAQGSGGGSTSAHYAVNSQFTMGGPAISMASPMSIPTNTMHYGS
Experiment: CARM1 Biochemical Assay
Details: peptide substrate, 3H-SAM Flashplate assay
Excerpt: S-adenosylmethionine (SAM), S-adenosylhomocysteine (SAH), bicine, Tween20, dimethylsulfoxide (DMSO), bovine skin gelatin (BSG), sodium butyrate and Tris(2-carboxyethyl)phosphine hydrochloride solution (TCEP) were purchased from Sigma-Aldrich at the highest level of purity possible. ^3H-SAM was purchase from American Radiolabeled Chemicals with a specific activity of 80 Ci/mmol. 384-well streptavidin Flashplates were purchased from PerkinElmer.
Peptide representative of human histone H3 residues 16-30 was synthesized with an N-terminal linker-affinity tag motif and a C-terminal amide cap by 21st Century Biochemicals. The peptide was purified by high-performance liquid chromatography (HPLC) to greater than 95% purity and confirmed by liquid chromatography mass spectrometry (LC-MS). The sequence was Biot-Ahx-[…]-amide and contained a monomethylated arginine at position 26 (SEQ ID NO.:14).
Human CARM1 (PRMT4) (NM_199141.1) transcript clone was amplified from an HEK 293 cDNA library, incorporating a flanking 5′ sequence encoding a FLAG tag ([…]) (SEQ ID NO.:6) fused directly to Ala 2 of CARM1 and 3′ sequence encoding a hexa His sequence ([…]) (SEQ ID NO.:15) fused directly to Ser 608. The gene sequence encoding isoform1 containing a deletion of amino acids 539-561 was amplified subsequently and subcloned into pFastBacMam (Viva Biotech).
Recombinant baculovirus were generated according to Bac-to-Bac kit instructions (Life Technologies). […] Infections were carried out at 37° C. for 48 hours, harvested by centrifugation, and stored at −80° C. for purification.
Column was washed with 500 mM NaCl in buffer A and Flag-CARM1-His was eluted with 200 ug/ml FLAG peptide in buffer A. Pooled fractions were dialyzed in 20 mM Tris, 150 mM NaCl, 5% glycerol and 1 mM DTT, pH 7.8. The purity of recovered protein was 94.
General Procedure for CARM1 Enzyme Assays on Peptide Substrates.
The assays were all performed in a buffer consisting of 20 mM Bicine (pH=7.6), 1 mM TCEP, 0.005% BSG, and 0.002% Tween 20, prepared on the day of use. Compounds in 100% DMSO (1 ul) were spotted into a polypropylene 384-well V-bottom plates (Greiner) using a Platemate Plus outfitted with a 384-channel head (Thermo Scientific). DMSO (1 ul) was added to Columns 11, 12, 23, 24, rows A-H for the maximum signal control and 1 ul of SAH, a known product and inhibitor of CARM1, was added to columns 11, 12, 23, 24, rows I-P for the minimum signal control. A cocktail (40 ul) containing the CARM1 enzyme was added by Multidrop Combi (Thermo-Fisher). The compounds were allowed to incubate with CARM1 for 30 min at room temperature, then a cocktail (10 ul) containing ^3H-SAM and peptide was added to initiate the reaction (final volume=51 ul). The final concentrations of the components were as follows: CARM1 was 0.25 nM, ^3H-SAM was 30 nM, peptide was 250 nM, SAH in the minimum signal control wells was 1 mM, and the DMSO concentration was 2%. The assays were stopped by the addition of non-radiolabeled SAM (10 ul) to a final concentration of 300 uM, which dilutes the ^3H-SAM to a level where its incorporation into the peptide substrate is no longer detectable. 50 ul of the reaction in the 384-well polypropylene plate was then transferred to a 384-well Flashplate and the biotinylated peptides were allowed to bind to the streptavidin surface for at least 1 hour before being washed once with 0.1% Tween20 in a Biotek ELx405 plate washer. The plates were then read in a PerkinElmer TopCount plate reader to measure the quantity of ^3H-labeled peptide bound to the Flashplate surface, measured as disintegrations per minute (dpm) or alternatively, referred to as counts per minute (cpm).
Where dpm=disintegrations per minute, cmpd=signal in assay well, and min and max are the respective minimum and maximum signal controls.
Where top and bottom are the normally allowed to float, but may be fixed at 100 or 0 respectively in a 3-parameter fit. […]

| IC50 [µM] | Compound |
| --- | --- |
| 1.01 to 3 | CNCCN(C)Cc1c[nH]nc1-c1cccnc1 [Compound 1] |
| ≥ 10 | CNCCN(C)Cc1c[nH]nc1-c1ccc(O)nc1 [Compound 2] |
| 3.01 to 10 | CNCCN(C)Cc1c[nH]nc1-c1ccc(N)nc1 [Compound 3] |
| ≥ 10 | CN(CCN)Cc1c[nH]nc1-c1cncc(S(C)(=O)=O)c1 [Compound 4] |
| 3.01 to 10 | COc1ccc(-c2n[nH]cc2CN(C)CCN)cn1 [Compound 5] |
| ≥ 10 | Cc1cncc(-c2n[nH]cc2CN(C)CCN)c1 [Compound 6] |
| 1.01 to 3 | CN(CCN)Cc1c[nH]nc1-c1cncc(F)c1 [Compound 7] |
| 3.01 to 10 | CN(CCN)Cc1c[nH]nc1-c1cccnc1 [Compound 8] |
| 3.01 to 10 | CN(CCN)Cc1c[nH]nc1-c1ccncc1 [Compound 9] |
| 0.101 to 1 | Cc1cc(-c2n[nH]cc2CN(C)CCN)cnc1Cl [Compound 10] |
